Values quoted from earlier work in patent US20230123388A1 (GLANIS PHARMACEUTICALS, INC., priority 2020, published 2023).
Where a name gives a salt, the structure may show the parent alone. Read-outs that look alike come from different tables or passages of the source.

What was measured:
[1] = not given; remark: listed apart in the source
[2] = test system: albumin and apha1-acid glycoprotein

SMILES | solubility in alcohol (alcohol) | solubility in chloroform (chloroform) | solubility in ether (ether) | solubility in water (water) | time of peak concentration ([1]; 200 mg oral dose) | peak concentration in blood ([1]; 200 mg oral dose, blood) | plasma concentration (peak) ([1]; 200 mg oral dose, plasma) | terminal half-life ([1]; based on blood concentration) | terminal half-life ([1]; based on the plasma concentration profile) | clearance ([1]; in vivo) | half-life ([1]; in vivo) | volume of distribution ([1]; in vivo, listed as HCQ) | oral bioavailability ([1]; oral tablet) | bioavailability ([1]; randomized cross over study, 155 mg dose oral and IV infusion) | protein binding [2]
CCN(CCO)CCCC(C)Nc1ccnc2cc(Cl)ccc12 (stereo not drawn) [Hydroxychloroquine sulfate] | practically insoluble | practically insoluble | practically insoluble | freely soluble |  |  |  |  |  |  |  |  |  |  | 
CCN(CCO)CCCC(C)Nc1ccnc2cc(Cl)ccc12 (stereo not drawn) [Hydroxychloroquine] |  |  |  |  | around 3 hours | around 129.6 ng/ml | around 50.3 ng/ml | 30 to 60 days | ~32 days | 15.5 L/h | ~2.08 days | very large and high | about 75% | 0.74 | ~40%
